Laboratory results published in patent US20130072863A1, “CARBON DIOXIDE GAS MIST PRESSURE BATH METHOD AND CARBON DIOXIDE GAS MIST PRESSURE BATH APPARATUS FOR PREVENTING, IMPROVING OR CURING MYOCARDIAL INFARCTION” (priority 2010, published 2013).

Columns and labels:
[1] = system: models of myocardial infarction; experiment: laser tissue blood oxygen monitor measurement in the tissue during pressure bath treatment with four kinds of gases; type: in vivo, male wistar rats
Source text: The compositions of gases sealed under pressure in the carbon dioxide gas mist pressure bath means were subjected to the experiments using the four kinds of air mist (AM), CO2 gas (CG), CO2 mist (CM) and 100% oxygen mist (OM). Each of gases was sealed under pressure in the carbon dioxide gas mist pressure bath means, and the treatments were practiced. The numbers of the individuals were 13, 14, 15 and 11 pieces, respectively. Each of the individuals was intubated into male wistar rats aged of 8 weeks under the pentobarbital anesthesia, subjected to the thoracotomy, and was ligated at the coronary left-front rami descendens for making models of myocardial infarction. As to the treatments to these individuals by the four kinds of gases, the laser tissue blood oxygen monitor carried out measures on the pre-treatment (pre), the respective conditions at 10 min, 20 min and 30 min after starting the treatments, and the volume of oxygenated blood (volume of oxyhemoglobin) in the tissue of the individuals under the conditions (post) after finishing the treatments, and the measured results are shown in Table 1. To concretely explain Table 1, the air mist (AM) was experimented on the 13 individuals, and the laser tissue blood oxygen monitor carried out measures on the pre-treatment (pre), the conditions at 10 min, 20 min and 30 min after the treatments and the volumes of oxyhemoglobin of the respective individuals under the conditions (post) after the treatments. Then, “reference values” were made from values when having calculated the average values of the volume of oxyhemoglobin of the 13 individuals measured with the blood flow meter before the treatments, and Table expresses this average values as “1.000”. […] With respect to the average values of the volume of oxyhemoglobin of the respective individuals at 20 min, 30 min after starting the treatments and at the case of post, the above mentioned reference value made the division calculation on the value when having calculated the reference value of the volumes of oxyhemoglobin of the respective individuals, and the values calculated by the division are shown as the average values. […] The measures at this time also performed in each of the treatments as the pre-treatment (pre), the respective conditions of passing 10 min, 20 min and 30 min after starting the treatments, under the conditions (post) after finishing the treatments. In the results of measuring the treatments of the respective gases, “reference values” were made from values when calculating the average values of the volume of deoxyhemoglobin, the average value was expressed with “1.000” in this Table. The above mentioned reference values made the division calculation on the values when calculating the average values of the amount of deoxyhemoglobin of the respective individuals measured by the laser tissue blood oxygen monitor in the pre-treatment (pre) in the respective individuals of the cases of passing 20 min, 30 min and the condition (post) after finishing the treatments, and the values calculated by the division are shown as the average values. […] The measures performed, also at this time, in each of the gas treatments of the pre-treatment (pre), the respective conditions of 10 min, 20 min, 30 min after starting the treatment, and under the conditions (post) after finishing the treatments. In the results of measuring the treatments of the respective gases, making “reference values” from values when having calculated the average values of the volume of total hemoglobin, the average value is expressed with “1.000” in this Table. […]

myocardial infarction = experiment: measuring the tissue pH over weeks of treatment; type: in vivo, wistar rats
Description: The composition to be sealed under pressure into the carbon dioxide gas mist pressure bath means was experimented in the four kinds of the control (C), non-treated myocardial infarction (NM), CO2 mist (M) and CO2 gas. The number practiced by each of the gases is 8, 9, 8 and 5 individuals. In each of treatments, the pH changes of the individuals are measured in the pre-treatment (Δ1 day), one week after the treatment (Δ1 wks), two week after the treatment (Δ2 wks), and three week after the treatment (Δ3 wks). To explain Table 5 concretely, the control (C) was experimented to 8 individuals, as to the values of pH of the respective individuals are measured 1 week (Δ1 wks) after the treatment, 2 weeks (Δ2 wks) after the treatment, and (Δ3 wks) after the treatment. As to the changing values of pH of the respective individuals, making the reference values of the values when having calculated the average values of pH of 8 individuals measured before the treatment (Δ1 day), Table 5 expresses this reference value as “0.000”. Similarly, also as to three kinds of gases of the non treated myocardial infarction (NM), CO2 mist and CO2 gas (CG), making the reference values of the values when having calculated the average values of the changing values in pH before the treatment (Δ1 day), Table 5 expresses this reference value as “0.000”. The average values of the changing values of pH in the respective individuals measured at 1 week (Δ1 wks) after the treatment, 2 weeks (Δ2 wks) after the treatment and (Δ3 wks) after the treatment are shown with the respective changing amounts from the respective reference values. […] The numbers of the individuals practiced with the gases are 8, 9, 8 and 5 pieces, respectively, providing that the average values of pH are shown as they are pre-treatment (day 1), 1 week (Δ1 wks) after the treatment, 2 weeks (Δ2 wks) after the treatment, and (Δ3 wks) after the treatment.

[2] = 10 min, relative to pre = 1.000
[3] = 20 min, relative to pre = 1.000
[4] = 30 min, relative to pre = 1.000

**Q.** For `O=C=O` [CG, carbon dioxide], which “StO2 (degree of oxygen saturation in blood in the tissue), average value” (“StO2 … average value” for short) [1, 2] is on record?
**A.** The value was 1.027.

**Q.** What about the “total Hb (volume of total hemoglobin in the tissue), average value” (“total Hb” below) [1, 2] of the same molecule?
**A.** The value was 1.002.

**Q.** And the “deoxyHb (volume of deoxyhemoglobin in the tissue), average value” (shortened to “deoxyHb”) ([1]; 10 min after starting treatment, relative to pre = 1.000)?
**A.** Its value is “.974”.

**Q.** And the “oxyHb (volume of oxyhemoglobin in the tissue), average value” ([1]; 10 min after starting treatment, relative to pre-treatment average = 1.000)?
**A.** The value was 1.030.

**Q.** What about the “StO2 … average value” [1, 3] of the same molecule?
**A.** The value was 1.061.

**Q.** And the “deoxyHb” value [1, 3]?
**A.** The value was “.942”.

**Q.** And the “total Hb” value [1, 3]?
**A.** Its value is 1.010.

**Q.** What about the “oxyHb (volume of oxyhemoglobin in the tissue), average value” ([1]; 20 min after starting treatment, relative to pre = 1.000) of the same molecule?
**A.** Its value is 1.074.

**Q.** What about the “StO2 … average value” [1, 4] of the same molecule?
**A.** Its value is 1.063.

**Q.** And the “deoxyHb” value [1, 4]?
**A.** The value was “.930”.

**Q.** And the “total Hb” value [1, 4]?
**A.** The value was “.995”.

**Q.** And the “amount of oxyhemoglobin, effect of the treatment in words” value ([1]; over the course of treatment (FIG. 11))?
**A.** Its value is “though not significant, increase of the amount of oxyhemoglobin was recognized”.

**Q.** And the “StO2, effect of the treatment in words” value ([1]; over the course of treatment (FIG. 17))?
**A.** Its value is “increases until 20 minutes after the treatment starts”.

**Q.** And the “oxyHb (volume of oxyhemoglobin in the tissue), average value” ([1]; post (after finishing treatment), relative to pre = 1.000)?
**A.** Its value is 1.051.

**Q.** And the “StO2 … average value” ([1]; post, relative to pre = 1.000)?
**A.** Its value is 1.065.

**Q.** What about the “deoxyHb” value ([1]; post, relative to pre = 1.000) of the same molecule?
**A.** The value was “.915”.

**Q.** And the “total Hb” value ([1]; post, relative to pre = 1.000)?
**A.** The value was “.981”.

**Q.** What about the “tissue pH, average value” (myocardial infarction; 1 wks after the treatment) of the same molecule?
**A.** Its value is 7.168.

**Q.** And the “change of tissue pH (ΔpH), average value” (myocardial infarction; 1 wks after the treatment, change from pre-treatment (1 day) = 0.000)?
**A.** Its value is “−.084”.

**Q.** And the “tissue pH, average value” (myocardial infarction; 2 wks after the treatment)?
**A.** The value was 7.340.

**Q.** What about the “change of tissue pH (ΔpH), average value” (myocardial infarction; 2 wks, change from pre-treatment = 0.000) of the same molecule?
**A.** The value was “.090”.

**Q.** What about the “tissue pH, average value” (myocardial infarction; 3 wks after the treatment) of the same molecule?
**A.** The value was 7.306.

**Q.** What about the “change of tissue pH (ΔpH), average value” (myocardial infarction; 3 wks, change from pre-treatment = 0.000) of the same molecule?
**A.** The value was “.050”.

**Q.** What about the “tissue pH, average value” (myocardial infarction; pre-treatment (day 1)) of the same molecule?
**A.** The value was 7.254.
